The record followed here is a melting point compilation (Tetko et al.; mined from patent text by program, amines drawn as free bases though some values may be those of a salt).

For `CC1(C)OC(C=CC=Cc2ccc(Cl)cc2)=CC1=O`, the melting point lay in the range of 95 to 96 °C.
For `CCOc1nc(CC)c(CNC(=O)C(S)CC(C)C)n1Cc1ccc(-c2ccccc2C(=O)O)cc1F` (configuration not stated), the melting point came to 151 °C.
In turn, `COC(=O)c1ccc(OCC2CN(c3ccc([N+](=O)[O-])cc3)C(=O)O2)cc1` (configuration not stated) returned a melting point of 200 to 201 °C.
The molecule `COc1ccc(-c2nc3ccc(OC(F)(F)F)cc3[nH]2)c(OC)c1` yielded a melting point of 201 to 203 °C.
Regarding `O=[N+]([O-])c1ccccc1C1=NCC(=S)Nc2sccc21`, the melting point is 207 to 209 °C.
In the case of `O=C(N[C@@H](Cc1ccccc1)C(=O)O)OCC(Cl)(Cl)Cl`, the melting point amounted to 126 °C.
As for `CC(C)(C)c1ccc(OCC(O)CN2CCC3(CC2)CSC2=C(O3)c3ccccc3C(=O)C2=O)cc1` (configuration not stated), the melting point lay in the range of 150 to 152 °C.
`CCN(CC)C(=O)Oc1nc(C)c2cc(OC)c(OC)cc2c1NC(N)=O` yielded a melting point of 215 to 216 °C.
In turn, `Cc1cc(C#N)cc(C(=O)Nc2ccn(C)n2)n1` showed a melting point of 201 °C.
`Oc1ccc(-c2n[nH]c3c2Cc2ccccc2-3)cc1` yielded a melting point of 266 to 268 °C.
Regarding `Cc1cc(Cl)ccc1NC(=O)C(=O)N1CCC(Cc2ccccc2)CC1`, the melting point was 105 to 108 °C.
As for `O=C(Nc1c(OCc2ccccc2)cc(Br)cc1[N+](=O)[O-])C(F)(F)F`, the melting point lay within 146 to 147 °C.
As for `Cn1cc2c(nc(NC(=O)Nc3ccc(CC(=O)NCCCOCCOCCOCCCNC(=O)OC(C)(C)C)cc3)n3nc(-c4ccco4)nc23)n1`, the melting point was in the range of 151 to 158 °C.
`CCCCOc1cc2cc(C(=O)OC)c(C(=O)OC)c(-c3ccncc3)c2cc1OC`: the melting point fell in the range of 149 to 151 °C.
As for `CCc1cc2c(Cl)cc(F)c(-n3c(=O)cc(C(F)(F)F)[nH]c3=O)c2o1`, the figure is 154 to 155 °C; as for `COc1ccc(-c2cccs2)cc1/C=C/C(=O)c1ccc(C(=O)O)cc1`, 195 to 196 °C; as for `N#CN=C(Nc1ccc(NCCF)nc1)Oc1ccccc1`, 157 to 158 °C.
The molecule `COC(=O)c1cccc(NC=O)n1` displayed a melting point of 134 to 136 °C.
Take `COC(=O)C=C(Nc1ccc(CC(=O)OC)cc1)C(F)(F)F`: the melting point was in the range of 50 to 51 °C.
As for `C=CC[C@H]1C(=O)N(S(=O)(=O)c2cccc(S(=O)(=O)N(C)C)c2)[C@H]2CCN(C(=O)OCc3ccccc3)[C@H]12` (relative stereo), the figure is 70 to 75 °C; as for `O=C(Nc1ccc(Cl)c(Cl)c1)NS(=O)(=O)c1ccc2c(c1)C(O)CO2` (configuration not stated), 109 to 112 °C; as for `Fc1ccc(-c2ccc(C(F)(F)F)cn2)cc1`, 38 to 40 °C.
Regarding `COc1ccc2c(CC3=C(CC(=O)O)CCC3=O)cccc2c1C(F)(F)F`, the melting point lay within 59 to 61 °C.
As for `O=C(NCCc1c[nH]c2ccc(F)cc12)OCc1ccccc1`, the figure is 104 to 105 °C; as for `CCOC(=O)Cc1ccc(-c2ccc3oc(C(=O)OCC)c(C)c3c2)cc1`, 110 to 112 °C; as for `NC(=O)Cn1c(-c2cccc(Cl)c2)nc2cccnc21`, 245 to 247 °C.
As to `N=C(OCC1CC1)N1Cc2ccccc2-c2ccccc2C1`, the melting point fell in the range of 80 to 83 °C.
Consider `Oc1ccc(-c2cc3cc(Br)ccc3o2)cc1`, for which the melting point fell in the range of 228 to 229 °C.
In turn, `CCOC(=O)c1c(-c2ccccc2Cl)c2cc(C(C)C)ccc2n(C)c1=O` yielded a melting point of 140 to 142 °C.
Molecule `O=C1Nc2ccccc2C12CCNCC2` returned a melting point of 184 to 186 °C.
Regarding `Cc1ncc([N+](=O)[O-])n1CCN1C(=O)NC(c2ccccc2)(c2ccccc2)C1=O`, the melting point was 209 to 210 °C.
`CCOc1ccc(C2=NNC(=O)[C@H]3CC=CC[C@@H]23)cc1OCC` (relative stereo) came in with a melting point of 145 to 147 °C.
Consider `CN(C)C(=O)Cc1ccccc1Nc1ccnc2cc(C(F)(F)F)ccc12`, for which the melting point fell in the range of 172 to 173 °C.
Take `COc1ccc(Cn2c(NC3CCN(CCNc4ncccn4)CC3)nc3ccccc32)cc1`: the melting point worked out at 160 °C.
For `O=C(O)c1cn(-c2cnsn2)c2nc(N3CCCC3)c(F)cc2c1=O`, the melting point was 269 to 273 °C.
`COc1cc(-c2c(Cl)c(CN3CCCC3=O)nc3sc4c(c23)CCN(Cc2ccccc2)C4)ccc1OC(C)C` displayed a melting point of 140 to 141 °C.
As for `CNc1nc(-c2ccc(OC)c(OC)c2)cs1`, the figure is 120 to 123 °C; as for `CC(=O)c1ccnc(N(C)C)c1`, 37 to 42 °C.
Consider `CC(NC(=O)Cc1cc(F)cc(F)c1)C(=O)NC1C(=O)NC(c2ccccc2)c2ccccc21` (configuration not stated), for which the melting point was 244 °C.
The molecule `COc1nc(=O)n(-c2ccc(Cl)cc2C)c(=O)[nH]1` had a melting point of 193 to 195 °C.
Regarding `CC(O)c1ccc(F)c(-c2ccc3nc(-c4ccc(Cl)cc4)cn3c2)c1` (configuration not stated), the melting point lay within 180 to 182 °C.
Molecule `O=C(c1ccn2c1CSC2c1cccnc1)c1c[nH]c2cc(-c3ncccn3)ccc12` (configuration not stated) returned a melting point of 125 to 128 °C.
In turn, `CC1(c2ccccc2)SCN=C1COc1ccc(C#N)cn1` (configuration not stated) displayed a melting point of 124 to 125 °C.
As to `CCN(CC)c1ccc(-c2cc(-c3ccc(C(=O)O)cc3)ccc2O)cc1C(F)(F)F`, the melting point stood at 195 °C.
As for `CC(=O)NC(NC(=O)Nc1ccccc1)C(=O)NCc1ccccc1` (configuration not stated), the figure is 242 °C.
As to `Cc1cccc(Cl)c1CNc1c(NC(C)(C)C)c(=O)c1=O`, the melting point was 254 to 257 °C.
As for `Cc1nc(Nc2c([N+](=O)[O-])cc(C(F)(F)F)c(Cl)c2[N+](=O)[O-])c(Cl)cc1Cl`, the figure is 128 to 130 °C; as for `Nc1nc2ccccc2c2sc(CO)nc12`, 247 to 249 °C.
Take `CN(c1cccc2cc(-c3nncs3)[nH]c12)S(=O)(=O)c1cccs1`: the melting point lay within 270 to 271 °C.
Take `COc1cc(CCCC2SC(=O)NC2=O)ccc1OCc1coc(/C=C/c2ccccc2)n1` (configuration not stated): the melting point lay within 154 to 155 °C.
As for `O=Cc1cc2cccc3ccc4cccc1c4c32`, the figure is 172 to 174 °C.
`N#CC=C(c1ccccc1C(F)(F)F)c1ccccc1C(F)(F)F` showed a melting point of 65 to 68 °C.
Molecule `O=C(COc1ccccc1)Nc1ccccc1C(=O)O` came in with a melting point of 201 to 203 °C.
`COc1ccc(Nc2nc3cc4c(cc3[nH]2)NC(=O)C4(C)C)cc1` registered a melting point of 286 to 288 °C.
As for `COCOc1c(-c2ccccc2)sc2ncccc12`, the figure is 54 °C; as for `O=C/C=C/c1ccc(Cl)c(Cl)c1`, 92 to 94 °C.
In the case of `CN1CS(=O)c2cccc(F)c21` (configuration not stated), the melting point was in the range of 122 to 124 °C.
As for `CCCCCCCCCCCCOc1ccc(-c2ncc(-c3ccc(O)c(F)c3F)cn2)cn1`, the figure is 111 to 118 °C; as for `CCOC(=O)Cn1c2c([nH]c(=O)c1=O)CCC1=C2C=C(N)CC1`, 238 °C; as for `COc1cc(COc2nn(-c3ccccc3)cc2/C=C/P(=O)(OC(C)C)OC(C)C)ccc1OCc1nc(-c2ccco2)oc1C`, 152 to 153 °C.
Molecule `CC(C)(NS(=O)(=O)c1ccc2oc3cc(Cl)ccc3c2c1)C(=O)NO` gave a melting point of 195 to 196 °C.
The molecule `CSc1ncc(CCN2CCC(C3(c4ccc(F)cc4)OCCO3)CC2)c(O)n1` gave a melting point of 206 °C.
Molecule `CC(C)(C)NS(=O)(=O)c1cc(C(=O)Cl)ccc1Cl` gave a melting point of 97 °C.
`CSC1NC(N)=CC(=O)N1C` (configuration not stated) registered a melting point of 255 °C.
Molecule `O=[N+]([O-])c1ccc2[nH]cc(C3=CCN(CC4CC4)CC3)c2c1` displayed a melting point of 187 to 188 °C.
The molecule `COCCOc1ccc(OCC(O)CNCCNC(=O)N2CCOCC2)cc1` (configuration not stated) had a melting point of 69 °C.
The molecule `CSc1ncc2c(=O)[nH]c(-c3ccccc3OCC3CC3)nc2n1` yielded a melting point of 186 to 187 °C.
On to `COc1ccc2c(c1)CCc1nn(-c3nc4ccccc4s3)c(O)c1-2`, for which the melting point was 182 to 183 °C.
As for `O=C(O)c1ccc(-c2cccc3cc(Cc4cccc(C(F)(F)F)c4)sc23)cc1`, the figure is 200 to 201 °C.
The molecule `COc1ccc(-c2cc(C)cn2-c2ccc(S(N)(=O)=O)cc2)cc1Cl` registered a melting point of 160 to 163 °C.
`CN(C)S(=O)(=O)c1cc(-c2ccccc2)ccc1S(N)(=O)=O` returned a melting point of 197 to 200 °C.
With `Oc1cccc(O)c1Cl`, the melting point was found to be 97 °C.
The molecule `CC(C)(C)OC(=O)N1CCn2c(c(C(N)=O)c(C#N)c2C2CCOCC2)C1` gave a melting point of 212 to 221 °C.
On to `CC(=O)NC1(C#N)CC(C)(C)NC(C)(C)C1`, for which the melting point lay within 153 to 160 °C.
The molecule `CSC(=N)Nc1nc(C(C)(C)C)c(O)c(C(C)(C)C)n1` returned a melting point of 163 to 165 °C.
Consider `Cc1ccccc1-c1nc(OCCN(C)C)ncc1N(C)C(=O)C(C)(C)c1cc(C(F)(F)F)cc(C(F)(F)F)c1`, for which the melting point lay within 140 to 141 °C.
Regarding `CS(=O)(=O)c1ccc(C=C2/C(=N/O)CCc3ccccc32)cc1`, the melting point lay in the range of 165 to 166 °C.
`CC(C)(C)OC(=O)N1CCCN(c2ccc([N+](=O)[O-])cc2C#N)CC1` displayed a melting point of 98 °C.
For the molecule `COc1ccc([C@@H]2Sc3ccccc3N(CCN(C)C)C(=O)[C@@H]2OC(=O)Nc2cccc(F)c2)cc1` (relative stereo), the melting point lay within 111 to 113 °C.
`CCCCOc1c(CNC(=O)OC(C)(C)C)n(CC(C)C)c(=O)c2ccc(C#N)cc12`: the melting point was in the range of 126 to 127 °C.
As for `COc1c(-c2cc3c(s2)CCCC3=O)ccc2c(=O)c(C(=O)O)cn(C3CC3)c12`, the figure is 266 to 267 °C; as for `Clc1ccc(C2(CBr)OCC(c3ccccc3)O2)cc1` (configuration not stated), 60 °C; as for `CCCCCCCCCCCCC(C)N(c1ccccc1)P(=O)(O)O` (configuration not stated), 60 to 64 °C.
The molecule `Nc1ncc(Oc2ccc(Cl)cc2)c(N2CCN(CCO)CC2)n1` yielded a melting point of 121 to 123 °C.
`COC(=O)C(Cc1ccc(OCCn2c(=O)sc3cc(Cc4ccc(-c5ccccc5)cc4)ccc32)cc1)C(=O)OC` displayed a melting point of 122 °C.
In turn, `CC(=O)OCCOc1ncnc(NS(=O)(=O)c2ccc(C)cc2)c1CCc1ccccc1` showed a melting point of 120 to 123 °C.
The molecule `N#Cc1cnn2c1N(C(=O)CN1CCC(c3ccccc3)CC1)CC=C2c1cc(Cl)ccc1Cl` gave a melting point of 199 to 200 °C.
